Holding throughout (assay): biochemical
What all share (assay type): binding

One assay has as its target T1, HLA-DRB1*1501 (Homo sapiens, UniProt P01903+P01911).
T1 construct: purchased
As to conditions: binding inhibition assay; NB = non-binder (no dose-dependent inhibition); read-out: DRB1*1501 IC50. Put shortly: (§1)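 HLA-peptide complexes are captured with anti-HLA-DR antibody, and bound reference is quantified by europium-probe time-resolved fluorescence.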

Another assay has as its target HLA-DRB1*0801 (Homo sapiens, UniProt P01903+P01911, A100R/A103L/A169T/D86S/F76Y/H45Y/I96F/K41T/L162R/M171V/P40S/Q125H/Q178H/Q39Y/Q99D/R218S/R42G/S66Y/V115G/W38E). Particulars: binding inhibition assay; NB = non-binder (no dose-dependent inhibition); read-out: DRB1*0801 IC50. Put shortly: as §1
Another assay has as its target HLA-DRB1*1101 (Homo sapiens, UniProt P01903+P01911, A100R/A169T/A87E/I96F/K41T/L162R/M171V/P40S/Q125H/Q178H/Q39Y/Q99D/R42S/S66Y/T262R/V115G/W38E). As to conditions: binding inhibition assay; NB = non-binder (no dose-dependent inhibition); read-out: DRB1*1101 IC50. An outline of the steps:
as §1

In a further assay the target is HLA-DRB1*1301 (Homo sapiens, UniProt P01903+P01911, A100E/A169T/K41T/L162R/M171V/P40S/Q125H/Q178H/Q39Y/Q99D/R42S/S66N/T262R/W38E/Y61H). Particulars: binding inhibition assay; NB = non-binder (no dose-dependent inhibition); read-out: DRB1*1301 IC50. An outline of the steps: as §1
Another assay concerns the target T2, HLA-DRB1*0401 (Homo sapiens, UniProt P01903+P01911, A100K/A169T/F76Y/I96L/K127E/L162R/M171V/N62H/P40V/Q125Y/R42H/S133A/S149N/S66Y/V115G/V209L/W38E).
T2 construct: purchased
Particulars: binding inhibition assay; NB = non-binder (no dose-dependent inhibition); read-out: DRB1*0401 IC50. Put shortly:
as §1

For another assay, the target named is T3, HLA-DRB1*0101 (Homo sapiens, UniProt P01903+P01911, A100R/D57E/F55L/F60I/F76Y/I96L/L162R/M171V/P40L/Q125E/R42F/V115G/Y59C).
T3 construct: purchased
As to conditions: binding inhibition assay; NB = non-binder (no dose-dependent inhibition); read-out: DRB1*0101 IC50. Put shortly: as §1

A further assay addresses HLA-DRB1*0701 (Homo sapiens, UniProt P01903+P01911, A100R/A102G/A103Q/D57E/D86V/E43K/F76Y/K127E/L162R/M171V/P40G/Q125H/Q99D/R33Q/R42Y/R54Q/S133A/S66F/T210M/V115G/Y107V/Y59L/Y89S). Particulars: binding inhibition assay; NB = non-binder (no dose-dependent inhibition); read-out: DRB1*0701 IC50. An outline of the steps: as §1

For orientation: IC50 means the concentration that gives 50% inhibition.

Where a SMILES comes first, the peptide text is derived from it. A value given as a limit tells only on which side of the number the result lay.

Sequence of HLA-DRB1*1101 (P01903 26-254 limits assumed, other chains not shown): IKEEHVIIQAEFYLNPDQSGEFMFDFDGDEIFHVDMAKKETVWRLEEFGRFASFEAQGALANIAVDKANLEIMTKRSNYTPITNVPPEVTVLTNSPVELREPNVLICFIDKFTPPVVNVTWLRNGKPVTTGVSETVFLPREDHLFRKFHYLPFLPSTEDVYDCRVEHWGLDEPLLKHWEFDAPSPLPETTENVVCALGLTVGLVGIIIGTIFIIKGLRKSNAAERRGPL

`CC[C@H](C)[C@H](NC(=O)[C@H](CS)NC(=O)[C@H](CCC(=O)O)NC(=O)CNC(=O)[C@H](CCCNC(=N)N)NC(=O)[C@H](CO)NC(=O)[C@H](CO)NC(=O)[C@H](CCCNC(=N)N)NC(=O)[C@H](Cc1ccc(O)cc1)NC(=O)[C@H](Cc1ccc(O)cc1)NC(=O)[C@H](Cc1c[nH]cn1)NC(=O)[C@H](CCC(=O)O)NC(=O)[C@H](CCCCN)NC(C)=O)C(=O)N[C@@H](CC(C)C)C(=O)N[C@@H](CC(N)=O)C(=O)N[C@@H](CC(=O)O)C(N)=O` [RIPR_017] (Ac-KEHYYRSSRGECILND-NH2): the IC50 on HLA-DRB1*1501 is 58200 nM; at HLA-DRB1*0801, 6.44 µM; on HLA-DRB1*1101 it was 1380 nM; on HLA-DRB1*1301, greater than 100 µM; on HLA-DRB1*0401 it was greater than 100 µM; on HLA-DRB1*0101 it was 25 nM. On HLA-DRB1*0701, the IC50 amounted to 489 nM.
Take `CC[C@H](C)[C@H](NC(=O)CNC(=O)[C@H](CCC(N)=O)NC(=O)[C@H](CO)NC(=O)[C@H](CO)NC(=O)[C@H](CO)NC(=O)[C@H](Cc1ccc(O)cc1)NC(=O)[C@@H](NC(=O)[C@H](Cc1ccccc1)NC(=O)[C@H](CC(C)C)NC(=O)[C@@H](NC(=O)[C@H](CCCNC(=N)N)NC(=O)[C@H](CC(N)=O)NC(=O)[C@H](CCC(=O)O)NC(=O)[C@H](CC(=O)O)NC(C)=O)[C@@H](C)O)[C@@H](C)CC)C(=O)N[C@@H](Cc1ccc(O)cc1)C(=O)N[C@@H](CC(N)=O)C(=O)N[C@H](C(=O)N[C@@H](Cc1c[nH]cn1)C(=O)N[C@H](C(N)=O)[C@@H](C)O)[C@@H](C)CC` [CYRPA_008] (Ac-DENRTLFIYSSSQGIYNIHT-NH2): the IC50 was determined as 50 nM on HLA-DRB1*1501; 11.5 µM on HLA-DRB1*0801; 1130 nM on HLA-DRB1*1101; 6.98 µM on HLA-DRB1*1301; 1.05 µM on HLA-DRB1*0401; 4 nM at HLA-DRB1*0101. The IC50 on HLA-DRB1*0701 was found to be 219 nM.
Turning to `CC[C@H](C)[C@H](NC(=O)[C@H](Cc1ccccc1)NC(=O)[C@H](CC(N)=O)NC(=O)[C@@H](NC(=O)[C@H](CC(N)=O)NC(=O)[C@H](CCCCN)NC(=O)[C@@H](NC(=O)[C@H](CC(N)=O)NC(=O)[C@H](CC(N)=O)NC(=O)[C@@H](NC(=O)[C@H](CC(N)=O)NC(=O)[C@H](CC(=O)O)NC(=O)CNC(=O)[C@@H](NC(=O)[C@H](Cc1ccc(O)cc1)NC(=O)[C@H](Cc1ccccc1)NC(=O)[C@@H](N)Cc1c[nH]cn1)C(C)C)[C@@H](C)CC)C(C)C)C(C)C)C(=O)N[C@@H](CCC(=O)O)C(N)=O` [CYRPA_005] (H-HFYVGDNINNVKNVNFIE-NH2), the IC50 on HLA-DRB1*1501 is 122 nM; at HLA-DRB1*0801, 11.8 µM; on HLA-DRB1*1101 it was 293 nM; at HLA-DRB1*1301, 0.633 µM; on HLA-DRB1*0401, 0.078 µM; at HLA-DRB1*0101 it was 182 nM. Moreover, at HLA-DRB1*0701, the IC50 was determined as 137 nM.
In the case of `CC[C@H](C)[C@H](NC(=O)[C@@H](NC(=O)[C@H](C)NC(=O)[C@H](CC(C)C)NC(C)=O)[C@@H](C)O)C(=O)N[C@@H](CC(C)C)C(=O)N[C@@H](CCSC)C(=O)N[C@H](C(=O)N[C@@H](Cc1ccc(O)cc1)C(=O)N[C@@H](CC(C)C)C(=O)N[C@@H](Cc1ccc(O)cc1)C(=O)N[C@@H](CCCCN)C(=O)N[C@@H](CCCNC(=N)N)C(=O)N[C@@H](CCCCN)C(=O)NCC(=O)N[C@@H](CC(N)=O)C(=O)N[C@@H](C)C(=O)N[C@@H](CCC(=O)O)C(=O)N[C@@H](CCCCN)C(=O)N[C@@H](Cc1ccc(O)cc1)C(=O)N[C@@H](CC(=O)O)C(=O)N[C@@H](CCCCN)C(N)=O)C(C)C` [AMA1_009] (Ac-LATILMVYLYKRKGNAEKYDK-NH2), the IC50 on HLA-DRB1*1501 stood at 2440 nM; on HLA-DRB1*0801, 7.99 µM; on HLA-DRB1*1101, 165 nM; on HLA-DRB1*1301, 4.4 µM; at HLA-DRB1*0401 it was 11.1 µM; at HLA-DRB1*0101, 10000 nM. The IC50 at HLA-DRB1*0701 amounted to 3400 nM.
Regarding `CC[C@H](C)[C@H](NC(=O)[C@H](CCCCN)NC(=O)[C@H](CCC(=O)O)NC(=O)[C@@H](NC(=O)[C@H](CO)NC(=O)[C@H](CC(=O)O)NC(=O)[C@H](CCCNC(=N)N)NC(=O)[C@H](CC(N)=O)NC(=O)[C@H](CC(C)C)NC(=O)[C@@H](NC(=O)[C@@H](NC(=O)[C@H](Cc1ccc(O)cc1)NC(=O)[C@@H](NC(=O)[C@H](Cc1ccc(O)cc1)NC(=O)[C@H](CCCCN)NC(=O)[C@H](CC(N)=O)NC(=O)[C@H](CC(C)C)NC(=O)[C@H](Cc1ccc(O)cc1)NC(=O)[C@H](C)NC(=O)[C@H](Cc1ccc(O)cc1)NC(=O)[C@H](CC(=O)O)NC(C)=O)C(C)C)[C@@H](C)O)[C@@H](C)CC)[C@@H](C)O)C(=O)N[C@@H](CCCCN)C(=O)N[C@H](C(=O)N[C@@H](Cc1ccccc1)C(N)=O)[C@@H](C)O` [RIPR_002] (Ac-DYAYLNKYVYTILNRDSTEKIKTF-NH2), the IC50 stood at 201 nM on HLA-DRB1*1501; 16.1 µM at HLA-DRB1*0801; 1470 nM at HLA-DRB1*1101; 50.4 µM on HLA-DRB1*1301; 16.7 µM on HLA-DRB1*0401; 152 nM at HLA-DRB1*0101. Besides, the IC50 on HLA-DRB1*0701 is 6910 nM.
`CC[C@H](C)[C@H](NC(=O)[C@H](CCC(=O)O)NC(=O)[C@@H](NC(=O)[C@H](CCCCN)NC(=O)[C@H](CCCCN)NC(C)=O)C(C)C)C(=O)N[C@@H](Cc1ccccc1)C(=O)N[C@@H](CCCNC(=N)N)C(=O)N[C@@H](CO)C(=O)N[C@@H](CCCNC(=N)N)C(=O)N[C@@H](Cc1ccccc1)C(=O)N[C@@H](CO)C(=O)N[C@@H](CO)C(=O)N[C@@H](CCCCN)C(=O)N[C@@H](CC(C)C)C(=O)N[C@@H](CCC(N)=O)C(=O)N[C@@H](CS)C(=O)N[C@@H](CCC(N)=O)C(N)=O` [RIPR_011] (Ac-KKVEIFRSRFSSKLQCQ-NH2): the IC50 worked out at 7 nM on HLA-DRB1*1501; 65.6 µM on HLA-DRB1*0801; 9220 nM at HLA-DRB1*1101; 9.43 µM on HLA-DRB1*1301; 22 µM on HLA-DRB1*0401; 1360 nM on HLA-DRB1*0101. For the same compound, the IC50 at HLA-DRB1*0701 stood at 13700 nM.
For the compound `CSCC[C@H](N)C(=O)N[C@@H](CCCNC(=N)N)C(=O)N[C@@H](CCCCN)C(=O)N[C@@H](CC(C)C)C(=O)N[C@@H](Cc1ccc(O)cc1)C(=O)N[C@@H](CS)C(=O)N[C@H](C(=O)N[C@@H](CC(C)C)C(=O)N[C@@H](CC(C)C)C(=O)N[C@@H](CC(C)C)C(=O)N[C@@H](CO)C(=O)N[C@@H](C)C(=O)N[C@@H](Cc1ccccc1)C(=O)N[C@@H](CCC(=O)O)C(=O)N[C@@H](Cc1ccccc1)C(=O)N[C@H](C(=O)N[C@@H](Cc1ccc(O)cc1)C(N)=O)[C@@H](C)O)C(C)C` [AMA1_001] (H-MRKLYCVLLLSAFEFTY-NH2), the IC50 on HLA-DRB1*1501 stood at 751 nM; on HLA-DRB1*0801 it was 17.3 µM; on HLA-DRB1*1101, 320 nM; on HLA-DRB1*1301, 1.79 µM; on HLA-DRB1*0401, 1.47 µM; on HLA-DRB1*0101, 394 nM. For the same compound, at HLA-DRB1*0701, the IC50 is 206 nM.
Take `CC(=O)N[C@H](C(=O)N[C@@H](CO)C(=O)N[C@@H](CS)C(=O)N[C@@H](Cc1ccc(O)cc1)C(=O)N[C@@H](CCCNC(=N)N)C(=O)N[C@H](C(=O)N[C@@H](CO)C(=O)N[C@@H](Cc1ccccc1)C(=O)N[C@@H](CC(N)=O)C(=O)N[C@@H](CC(C)C)C(=O)N[C@@H](CC(N)=O)C(=O)N[C@@H](CCCCN)C(=O)N[C@@H](CC(C)C)C(=O)N[C@@H](CCCCN)C(=O)N[C@@H](Cc1ccc(O)cc1)C(=O)N[C@H](C(=O)N[C@H](C(=O)N[C@@H](CCC(=O)O)C(=O)N[C@@H](CO)C(N)=O)[C@@H](C)O)C(C)C)C(C)C)C(C)C` [RIPR_006] (Ac-VSCYRVSFNLNKLKYVTES-NH2): the IC50 turned out to be 6960 nM at HLA-DRB1*1501; 11.3 µM on HLA-DRB1*0801; 9320 nM at HLA-DRB1*1101; 11.5 µM at HLA-DRB1*1301; 8.78 µM on HLA-DRB1*0401; 446 nM at HLA-DRB1*0101. On HLA-DRB1*0701, the IC50 came out at 952 nM.

The values above are taken from paper PMC8294059, “Identification and Immune Assessment of T Cell Epitopes in Five Plasmodium falciparum Blood Stage Antigens to Facilitate Vaccine Candidate Selection and Optimization” (Frontiers in Immunology, 2021).
